Data on nine compounds can be found in patent US5817634A, “Methods of treating diabetes mellitus and clycogen storage disease” (The UAB Research Foundation, priority 1994, dated 1998).

One assay concerns the target T1, glycogenin (Bos taurus, UniProt Q29RN2).
T1 construct: chromatography of a 105,000×g supernatant from a homogenate of beef kidney on DE-53 cellulose; tissue local slaughter house; host or cells: beef kidney
T1 sequence (Q29RN2 1-333): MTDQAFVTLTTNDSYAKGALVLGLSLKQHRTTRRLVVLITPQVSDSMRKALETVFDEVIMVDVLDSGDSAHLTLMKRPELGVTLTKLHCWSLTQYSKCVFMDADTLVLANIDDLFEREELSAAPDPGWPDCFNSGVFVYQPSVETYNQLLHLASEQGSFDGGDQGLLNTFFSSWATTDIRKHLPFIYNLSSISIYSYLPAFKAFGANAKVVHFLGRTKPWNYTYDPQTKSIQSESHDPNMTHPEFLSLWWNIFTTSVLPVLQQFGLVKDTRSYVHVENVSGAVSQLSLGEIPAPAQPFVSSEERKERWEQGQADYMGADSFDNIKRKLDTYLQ
The experiment in a line: Glycogenin assay: transfer of glucose or xylose from the UDP-sugar to exogenous glycoside acceptors. The format is biochemical, beef. Conditions: for inhibition of transfer of [3H]glucose to DBM by glycogenin: inhibitor 0.1-0.5 mM, acceptor DBM; for activity as glucose acceptor substrate for glycogenin: UDP-[3H]glucose donor, 60 min at 37° C. From the text: Glycogenin is a self-glycosylating glycosyltransferase which can be obtained from muscle and which can also be obtained from rat and beef kidney. The enzyme is capable of transferring glucose and xylose from the respective UDP-sugar substrates to itself and also of transferring these sugars to exogenous acceptors, such as dodecyl-β-D-maltoside, tetradecyl-β-D-maltoside, octyl-β-D-maltoside, octyl-α-D-glucoside and other glycosides, as described herein.
Fresh beef kidney was purchased from a local slaughter house. Purification of glycogenin from kidney involves the following steps: chromatography of a 105,000×g supernatant from a homogenate of beef kidney on DE-53 cellulose, chromatofocusing and chromatography on a column of UDP-glucuronic acid-agarose, which was eluted with cytidine 5'-diphosphate(CDP). […] The protein concentration of the affinity purified enzyme was determined to be 10 μg/ml with the Quantigold protein reagent (Diversified Biotech, Newton Centre, Mass.).
An appropriate sample of UDP-[^3 H] glucose or UDP-[^3 H] xylose (supplied in 70% ethanol by the manufacturer) was evaporated to dryness with a gentle stream of filtered air and dissolved in 50 mM Tris Cl, pH 7.4/75 mM BAL/1.5 mM ATP. […] After incubation for 60 min at 37° C. product formation was measured by either of the two procedures described below.
Product isolation by precipitation with trichloracetic acid. After completed incubation, 1% bovine serum albumin (50 μl) and 10% trichloracetic acid/4% phosphotungstic acid (150 μl) were added, and the mixture was vortexed and kept on ice for at least 15 min. The precipitate was sedimented by centrifugation in a microfuge and washed three times with 5% trichloroacetic acid. The bottom of the tube, containing the pellet, was clipped off with a dog nail clipper and dropped into a 6 ml scintillation vial, the protein was dissolved in 250 μl of 2M NaOH, and, after neutralization with 250 μl of 2M HCl, 4.5 ml of Ecolume was added, and the radioactivity was measured.
Product isolation by adsorption to SepPak C18 cartridges. The reaction mixture was brought to a, volume of 0.5 ml by addition of water and was heated to 100° C. for 1 min. After cooling to room temperature, the mixture was centrifuged, and a 10 μl aliquot was removed for measurement of total radioactivity. The remaining 490 μl was applied with the use of a 10 ml syringe to a SepPak C18 cartridge, which had been preconditioned by washing with 8 ml of 95% ethanol, 8 ml of 70% ethanol, and 20 ml of water. After sample application, the cartridge was washed with 2×9 ml of water, followed by an additional 2 ml portion of water, and adsorbed radioactive material was then eluted with 3×4 ml of 70% ethanol. Typically, no significant radioactivity was found in the last water wash, and most of the bound radioactive material was found in the first ethanol eluate.
Gel electrophoresis and autoradiography. SDS-PAGE was carried out with slight modification of Laemmli (Laemmli, U. K., Nature, 227:680-685 (1970)). A Hoefer vertical slab gel electrophoresis unit (Hoefer Scientific Instruments, San Francisco, Calif.) was used for casting and electrophoresing with a 10% (w/v) acrylamide separating gel and a 4.5% (w/v) acrylamide stacking gel. Reaction mixtures, with total volumes of 75 μl, containing 0.15 μCi (0.26 μM) UDP-[^3 H] glucose, 10 ng of affinity purified enzyme (intact or heat denatured), in the absence and presence of increasing concentrations of DBM were incubated at 37° C. for 60 min. The reaction was terminated by addition of 5 μl of water and 20 μl of sample reducing buffer (5× concentrated) to give final concentrations of 40 mM Tris-Cl, pH 6.8, 1.5% (w/v) SDS, 6% (v/v) glycerol, 100 mM DTT and 0.002% (w/v) bromophenol blue and heated to 100° C. for 3 min. The supernatant was applied to the gel and electrophoresed at 7.5 mA for 16 hours. […]

Assay [1] addresses T2, Rabbit muscle glycogen synthase (Oryctolagus cuniculus, UniProt P13834).
T2 construct: purchased Sigma Chemical Co; host or cells: rabbit muscle
T2 sequence (P13834 1-735): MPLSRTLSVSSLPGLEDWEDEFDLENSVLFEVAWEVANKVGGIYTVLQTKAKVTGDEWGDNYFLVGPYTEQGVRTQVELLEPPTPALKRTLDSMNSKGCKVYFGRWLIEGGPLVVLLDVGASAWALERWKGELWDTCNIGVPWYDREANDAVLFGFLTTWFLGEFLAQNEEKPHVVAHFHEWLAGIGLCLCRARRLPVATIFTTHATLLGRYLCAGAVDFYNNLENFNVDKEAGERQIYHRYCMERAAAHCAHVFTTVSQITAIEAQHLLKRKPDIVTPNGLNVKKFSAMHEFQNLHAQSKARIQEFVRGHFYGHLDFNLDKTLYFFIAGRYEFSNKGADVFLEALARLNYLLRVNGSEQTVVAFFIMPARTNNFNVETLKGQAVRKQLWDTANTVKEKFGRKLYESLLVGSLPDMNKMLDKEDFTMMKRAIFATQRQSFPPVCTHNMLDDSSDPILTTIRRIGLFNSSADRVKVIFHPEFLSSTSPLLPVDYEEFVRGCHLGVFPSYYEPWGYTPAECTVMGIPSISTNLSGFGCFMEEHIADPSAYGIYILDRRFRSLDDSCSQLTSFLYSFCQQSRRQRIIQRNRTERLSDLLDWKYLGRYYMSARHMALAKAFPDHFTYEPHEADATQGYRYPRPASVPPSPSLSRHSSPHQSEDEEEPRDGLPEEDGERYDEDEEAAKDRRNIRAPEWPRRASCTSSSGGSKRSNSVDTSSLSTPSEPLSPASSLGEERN
The experiment in a line: Glycogen synthase assay: glucose transfer from UDP-glucose to acceptor. It is filed as biochemical. As to conditions: for rank as glucose acceptor for glycogen synthase: octyl-, dodecyl- and tetradecyl-maltosides compared, with G-6-P. How it is done:
Rabbit muscle glycogen synthase obtained from Sigma Chemical Co., (7.6 μg) was incubated with 0.45 μCi UDP-[^3 H]glucose (specific activity of 10.4 Ci/mmol), 1 mM UDP-glucose (glucose donor), 10 mM glucose-6-phosphate (the natural activator of glycogen synthase) and 1 mg glycogen (glucose acceptor) in 25 mM EDTA/5 mM DTT/100 mM glycine. NaOH buffer, pH 8.6 in a total volume of 100 μl for 30-240 minutes at 37° C. At different time points, glycogen was precipitated from the reaction mixtures with ethanol and the precipitate washed to remove any unincorporated radiolabel. The glycogen precipitate was then solubilized and counted in a liquid scintillation counter to quantitate the amount of [^3 H]glucose incorporated into glycogen.
Results. When DBM (0.5 mM) replaces glycogen as the glucose acceptor in the incubation mixture, a linear transfer of glucose to DBM with time is seen up to 4 hours, with the glucose transfer amounting to about 20% of the maximal value seen with glycogen (using the SepPak C18 assay).
When glycogen synthase was incubated for 24 hours with G-6-P, UDP-[^3 H]glucose and 0.5 mM DBM, several products of glucose transfer to DBM could be visualized following separation by thin layer chromatography and autoradiography. These products corresponded to the dodecyl-maltotrioside,-tetraoside, -pentaoside, -hexaoside, -heptaoside and higher oligosaccharide derivatives of DBM. […] Therefore, DBM and other suitable glycosides can serve as glucose acceptors for both glycogen synthase and glycogenin to promote glucose disposal in conditions such as hyperglycemia and diabetes mellitus. Providing an abundance of acceptor substrates in tissues, such as liver, which has a smaller number of extremely large glycogen molecules can alleviate the problem of excessive glycogen deposition in the glycogen storage diseases by promoting glucose disposal into more readily handled smaller glucose polymers built on DBM or other glycosides.

Entries after “also recorded” stand apart in the source; their conditions may differ.

As to `Nc1ccn([C@@H]2O[C@H](COP(=O)(O)OP(=O)(O)O)[C@@H](O)[C@H]2O)c(=O)n1` [Cytidine 5'-diphosphate, reference compound], the “inhibition of transfer of [3H]glucose to DBM by glycogenin” value on glycogenin was “inhibited the transfer of [^3 H]glucose to DBM by glycogenin in a dose dependent manner”; on glycogenin (listed as CDP), “dose-dependent inhibition”.

Consider `CCCCCCCCCCCCO[C@@H]1O[C@H](CO)[C@@H](O[C@H]2O[C@H](CO)[C@@H](O)[C@H](O)[C@H]2O)[C@H](O)[C@H]1O` [DBM, dodecyl-β-D-maltoside], for which the “glucose transfer relative to maximal value seen with glycogen” value in assay [1] (0.5 mM acceptor replacing glycogen, up to 4 hours, SepPak C18 assay) is recorded as “about 20%”. Besides, the “acceptor concentration giving near-maximal glycogen synthase activity” value in assay [1] (0.1 to 10 mM acceptor, 60 min incubation) is listed as “less than 0.5 mM”. The “length of acceptor-linked oligosaccharide products formed by glycogen synthase” value in assay [1] (24 hours with G-6-P, UDP-[3H]glucose, 0.5 mM acceptor, TLC and autoradiography) is on record as “greater than seven glucose residues”. Further, on glycogenin, the “activity as glucose acceptor substrate for glycogenin” value (“activity … for glycogenin” below) is reported as “dose-dependent fashion; also recorded: best acceptor for glucose”. Moreover, the “xylose acceptor for glycogenin (product formed)” value on glycogenin (UDP-[3H]xylose as donor substrate) is given as “DBM-xylose was formed”. Besides, the “glucose acceptor activity of DBM relative to octyl-β-D-maltoside” value at glycogenin (comparator octyl-β-D-maltoside) is reported as “four times better”. Also, at glycogenin (comparator tetradecyl-β-D-maltoside), the “glucose acceptor activity of DBM relative to tetradecyl-β-D-maltoside” value is on record as “twice as active”.

For the compound `CCCCCCCCO[C@H]1O[C@H](CO)[C@@H](O)[C@H](O)[C@H]1O` [Octyl-α-D-glucoside], the “activity … for glycogenin” value at glycogenin was “effective glucose acceptor”.

As for `CCCCCCCCCCO[C@@H]1O[C@H](CO)[C@@H](O[C@H]2O[C@H](CO)[C@@H](O)[C@H](O)[C@H]2O)[C@H](O)[C@H]1O` [decyl-β-D-maltoside], on glycogenin, the “activity … for glycogenin” value was “capable of serving as acceptor substrates”.

`CCCCCCCCO[C@@H]1O[C@H](CO)[C@@H](O)[C@H](O)[C@H]1O` [octyl-β-D-glucoside]: the “activity … for glycogenin” value on glycogenin is listed as “activities are low”.

With `CCCCCCCCO[C@@H]1O[C@H](CO)[C@@H](O[C@H]2O[C@H](CO)[C@@H](O)[C@H](O)[C@H]2O)[C@H](O)[C@H]1O` [octyl-β-D-maltoside], the “rank as glucose acceptor for glycogen synthase” value in assay [1] is “best acceptor”. The “activity … for glycogenin” value on glycogenin is on record as “capable of serving as acceptor substrates”.

Turning to `CCCCCCCCS[C@@H]1O[C@H](CO)[C@@H](O)[C@H](O)[C@H]1O` [octyl-β-D-thioglucoside], the “activity … for glycogenin” value on glycogenin is “more active as a glucose acceptor than octyl-β-D-glucoside”.

For the compound `CCCCCCCCCCCCCCO[C@@H]1O[C@H](CO)[C@@H](O[C@H]2O[C@H](CO)[C@@H](O)[C@H](O)[C@H]2O)[C@H](O)[C@H]1O` [tetradecyl-β-D-maltoside], the “rank as glucose acceptor for glycogen synthase” value in assay [1] was “followed by DBM and tetradecylmaltoside”. Further, at glycogenin, the “activity … for glycogenin” value is listed as “capable of serving as acceptor substrates”.

Consider dodecyl-β-D-sucrose, for which the “activity … for glycogenin” value at glycogenin is recorded as “much lower activity”.
